Source: patent US8026218B2, “Bifunctional analgesic compounds for opioid receptor agonists and neurokinin-1 receptor antagonists” (The University of Arizona, priority 2006, dated 2011)
Where two headings read alike, the source gives them in different places. Peptide text beside a SMILES is read from it.

Experiments:
[1] = biological target: T1, human NK1 receptor (hNK1) (Homo sapiens, UniProt P25103); experiment: Radioligand competition binding, [3H]-Substance P, hNK1
T1 construct: expressed in transfected cells

[2] = Octanol/saline distribution (logD7.4); assay type: physicochemical; conditions: 0.05 N HEPES buffer in 0.1 N NaCl
Procedure: HEPES buffer (0.05 M HEPES buffer in 0.1 M NaCl, pH 7.4, 500 μL) was added to 2 mg of compound and mixed with 500 μL of 1-octanol. The sample was shaken at r.t. for 12 h to allow equilibrating. The sample was centrifuged at 6500 rpm in a VanGuard V6500 (GlaxoSmithKline, Research Triangle Park, N.C.) for 15 min. The layers were separated and each layer was centrifuged once again. The compound concentrations of obtained layers were analyzed by HPLC (30-70% of acetonitrile containing 0.1% TFA within 20 min and up to 95% within additional 5 min, 1 mL/min, 230 nm, Vydac 218TP104 C-18 column). The logarithm of 1-octanol/saline distribution (logD7.4) was calculated as the ratio of compound concentration in the 1-octanol and saline phases.
Octanol/saline distribution (logD7.4) (Yamamoto, 2007, J. Med. Chem., submitted). HEPES buffer (0.05 M HEPES buffer in 0.1 M NaCl, pH 7.4, 500 μL) was added to 2 mg of compound and mixed with 500 μL of 1-octanol. The sample was shaken at r.t. for 12 h to allow equilibrating. The sample was centrifuged at 6500 rpm in a VanGuard V6500 (GlaxoSmithKline, Research Triangle Park, N.C.) for 15 min. The layers were separated and each layer was centrifuged once again. The compound concentrations in the obtained layers were analyzed by HPLC (30-70% of acetonitrile containing 0.1% TFA within 20 min and up to 95% within additional 5 min, 1 mL/min, 230 nm, Vydac 218TP104 C-18 column). The logarithm of 1-octanol/saline distribution (logD7.4) was calculated as the ratio of compound concentration in the 1-octanol and saline phases.

rat NK1 (rNK1) receptor = biological target: T2, rat NK1 (rNK1) receptor (Rattus norvegicus, UniProt P14600); experiment: Radioligand competition binding, [3H]substance P, rNK1/CHO membranes; conditions: for IC50: LogIC50, rNK1, [3H]Substance P, logarithm of IC50 (negative)
T2 construct: expressed in transfected cells; host or cells: CHO (rNK-1/CHO cell line from Dr. James Krause)

[3] = biological target: T3, Substance P receptors (guinea pig NK1) (Cavia porcellus, UniProt P30547); experiment: Guinea pig isolated ileum (GPI) assay with substance P stimulation in presence of 1 μM naloxone; conditions: for Kb: Substance P antagonist, GPI, in the presence of 1 μM naloxone
T3 construct: from tissue; host or cells: guinea pig (Hartley) ileum LMMP, 1 μM naloxone present

δ opioid receptors (MVD) = biological target: T4, δ opioid receptors (MVD) (Mus musculus, UniProt P32300); experiment: Mouse isolated vas deferens (MVD) assay, opioid agonist
T4 construct: from tissue; host or cells: mouse (ICR) isolated vas deferens

[4] = biological target: T5, human δ opioid receptors (hDOR) (Homo sapiens, UniProt P41143); experiment: Radioligand competition binding, [3H]DPDPE, hDOR membranes
T5 construct: expressed in transfected cells; host or cells: HN9.10 neuroblastoma cell line, pCDNA3, neomycin-selected clones

[5] = biological target: T6, rat μ opioid receptors (rMOR) (Rattus norvegicus, UniProt P33535); experiment: biochemical; assay type: biochemical
T6 construct: expressed in transfected cells; host or cells: HN9.10 neuroblastoma cell line, pCDNA3, neomycin-selected clones

[6] = biological target: T6, rat μ opioid receptors (rMOR); experiment: Radioligand competition binding, [3H]DAMGO, rMOR membranes
[7] = In vitro stability in rat plasma at 37° C.; assay type: in vitro ADME; conditions: rat, rat plasma, read-out: half life (T1/2) in rat plasma (converted)
Procedure: The derivative compounds were tested for their metabolite stability. The compounds were incubated in rat plasma at 37° C., and aliquots were withdrawn at various time points and analyzed by HPLC to determine the concentration of remaining compound derivatives (FIGS. 15-16, 36, and 47-48).
In Vitro Stability of compound derivatives in Rat Plasm (Yamamoto, 2007, J. Am. Chem. Soc. submitted). Stock solution of compounds (50 mg/mL in DMSO) were diluted 1000-fold into rat plasma (Lot 24927, Pel-Freez Biologicals, Rogers, Ak.) to result in an incubation concentration of 50 μg/mL. All samples were incubated at 37° C. for 6 h, and 200 μL of aliquots were withdrawn at 1 h, 2 h, 4 h and 6 h. […] The samples were run in triplicate. Discussion.

μ opioid receptors (GPI) = experiment: Guinea pig isolated ileum (GPI) assay, opioid agonist;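 further: inhibition of electrically evoked contractions (0.1 Hz, 0.4 msec, supramaximal voltage) in organ baths at 37 °C, contraction height 3 min after each cumulative dose versus the 1 min before dosing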
[8] = biological target: T5, human δ opioid receptors (hDOR); experiment: [35S]GTP-γ-S binding assay, hDOR; assay type: biochemical
[9] = Solubility in HEPES buffer; assay type: physicochemical; conditions: Table 26; HEPES buffer pH 7.4
Procedure: Solubility. HEPES buffer (0.05 M HEPES buffer in 0.1 M NaCl, pH 7.4, 500 μL) was added to 1 mg of compound. The sample was vortexed for 30 sec, sonicated for 5 min, shaken at r.t. for 2 h, and then allowed to be stayed overnight to equilibration. The sample was filtrated with an Acrodisc Syringe Filter (13 mm, 0.45 μm pore, PTFE membrane, Pall Life Sciences, East Hills, N.Y.).

[10] = Table 39, read-out: Affinity hNK1 (Ki; nM)
[11] = read-out: Ki (nM), hNK1, [3H]Substance P, Table 6, CHO cell membranes
[12] = read-out: Inhibition % at 1 μM, rNK1, [3H]Substance P

T5 sequence (P41143 whole entry): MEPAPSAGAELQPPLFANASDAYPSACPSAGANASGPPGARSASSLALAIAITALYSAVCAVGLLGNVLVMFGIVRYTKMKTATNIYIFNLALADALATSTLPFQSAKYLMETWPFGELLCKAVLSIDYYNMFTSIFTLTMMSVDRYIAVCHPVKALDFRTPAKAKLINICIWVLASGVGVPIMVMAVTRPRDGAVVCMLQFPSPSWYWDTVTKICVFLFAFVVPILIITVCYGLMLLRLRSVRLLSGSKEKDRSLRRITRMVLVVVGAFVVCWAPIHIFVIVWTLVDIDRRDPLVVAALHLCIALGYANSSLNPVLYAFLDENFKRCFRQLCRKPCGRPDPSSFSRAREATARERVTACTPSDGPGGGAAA
T3 sequence (P30547 whole entry): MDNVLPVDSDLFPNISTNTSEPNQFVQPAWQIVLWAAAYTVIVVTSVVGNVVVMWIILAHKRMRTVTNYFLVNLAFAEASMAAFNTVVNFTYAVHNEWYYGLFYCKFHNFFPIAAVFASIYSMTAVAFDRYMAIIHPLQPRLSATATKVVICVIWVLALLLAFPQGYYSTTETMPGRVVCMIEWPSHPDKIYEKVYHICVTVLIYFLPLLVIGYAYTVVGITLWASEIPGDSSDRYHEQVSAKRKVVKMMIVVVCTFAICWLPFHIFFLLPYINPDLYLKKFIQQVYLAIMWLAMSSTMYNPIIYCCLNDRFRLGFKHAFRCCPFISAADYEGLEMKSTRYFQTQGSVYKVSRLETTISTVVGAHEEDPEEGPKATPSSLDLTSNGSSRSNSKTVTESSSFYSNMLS
T6 sequence (P33535 whole entry): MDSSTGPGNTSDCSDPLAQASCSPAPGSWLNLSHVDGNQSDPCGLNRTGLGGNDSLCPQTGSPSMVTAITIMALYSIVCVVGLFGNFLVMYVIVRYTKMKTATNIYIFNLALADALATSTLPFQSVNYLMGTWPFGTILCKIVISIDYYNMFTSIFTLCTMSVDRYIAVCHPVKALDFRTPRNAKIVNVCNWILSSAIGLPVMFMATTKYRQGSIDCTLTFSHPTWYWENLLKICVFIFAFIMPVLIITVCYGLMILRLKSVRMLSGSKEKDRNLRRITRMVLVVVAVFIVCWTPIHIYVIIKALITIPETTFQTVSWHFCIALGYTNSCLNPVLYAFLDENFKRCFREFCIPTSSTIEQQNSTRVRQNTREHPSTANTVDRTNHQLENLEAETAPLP
T1 sequence (P25103 whole entry): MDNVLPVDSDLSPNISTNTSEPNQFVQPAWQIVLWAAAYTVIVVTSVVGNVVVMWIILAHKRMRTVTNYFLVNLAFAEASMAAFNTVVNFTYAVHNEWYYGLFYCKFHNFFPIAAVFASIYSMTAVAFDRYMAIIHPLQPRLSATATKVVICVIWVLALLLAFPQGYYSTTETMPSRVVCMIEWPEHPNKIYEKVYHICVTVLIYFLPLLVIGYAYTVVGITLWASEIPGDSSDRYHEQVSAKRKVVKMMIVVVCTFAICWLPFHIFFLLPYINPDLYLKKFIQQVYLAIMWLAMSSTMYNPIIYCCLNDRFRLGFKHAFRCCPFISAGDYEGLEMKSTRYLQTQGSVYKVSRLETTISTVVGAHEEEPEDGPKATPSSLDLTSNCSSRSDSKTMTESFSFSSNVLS
T2 sequence (P14600 whole entry): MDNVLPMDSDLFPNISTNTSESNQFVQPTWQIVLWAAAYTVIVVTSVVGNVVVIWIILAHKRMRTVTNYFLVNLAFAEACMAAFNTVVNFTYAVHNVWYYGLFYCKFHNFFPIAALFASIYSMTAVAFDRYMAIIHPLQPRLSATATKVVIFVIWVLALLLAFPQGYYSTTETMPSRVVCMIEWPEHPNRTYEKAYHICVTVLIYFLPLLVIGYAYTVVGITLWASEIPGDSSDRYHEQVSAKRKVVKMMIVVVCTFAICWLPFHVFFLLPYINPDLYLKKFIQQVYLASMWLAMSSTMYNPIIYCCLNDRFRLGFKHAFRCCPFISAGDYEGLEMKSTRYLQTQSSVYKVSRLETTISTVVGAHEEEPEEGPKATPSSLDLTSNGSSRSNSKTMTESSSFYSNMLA
T4 sequence (P32300 whole entry): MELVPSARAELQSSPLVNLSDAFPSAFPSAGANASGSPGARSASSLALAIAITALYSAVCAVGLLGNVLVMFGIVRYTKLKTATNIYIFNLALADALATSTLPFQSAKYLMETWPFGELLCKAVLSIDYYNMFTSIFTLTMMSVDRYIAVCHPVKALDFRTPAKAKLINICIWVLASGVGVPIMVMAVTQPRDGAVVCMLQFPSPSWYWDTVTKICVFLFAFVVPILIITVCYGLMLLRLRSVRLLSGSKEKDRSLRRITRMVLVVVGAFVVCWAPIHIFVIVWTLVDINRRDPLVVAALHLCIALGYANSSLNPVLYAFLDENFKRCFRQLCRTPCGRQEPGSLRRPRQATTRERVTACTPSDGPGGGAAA

CC(C)C[C@H](NC(=O)[C@@H]1CCCN1C(=O)[C@H](Cc1ccccc1)NC(=O)CNC(=O)[C@@H](C)NC(=O)[C@@H](N)Cc1ccc(O)cc1)C(=O)N[C@@H](Cc1c[nH]c2ccccc12)C(=O)NCc1cc(C(F)(F)F)cc(C(F)(F)F)c1 [TY012, H-Tyr-D-Ala-Gly-Phe-Pro-Leu-Trp-NH-3,5-Bzl(CF3)2]
IC50 [1]: 1.26 nM
logD7.4 [2]: >4
IC50 (rat NK1 (rNK1) receptor; Table 6, CHO cell membranes): 100 nM

CC(C)C[C@H](NC(=O)[C@@H]1CCCN1C(=O)[C@H](Cc1ccccc1)NC(=O)CNC(=O)[C@@H](C)NC(=O)[C@@H](N)Cc1ccc(O)cc1)C(=O)N[C@@H](Cc1c[nH]c2ccccc12)C(=O)N(C)Cc1cc(C(F)(F)F)cc(C(F)(F)F)c1 [TY013, H-Tyr-D-Ala-Gly-Phe-Pro-Leu-Trp-NMe-3,5-Bzl(CF3)2]
IC50 [1]: 3.16 nM
Ki [1]: 6.1 nM
Ki [1, 10]: 1.4 nM
Ki [1, 11]: 1.4 nM
logD7.4 [2]: >4
IC50 (rat NK1 (rNK1) receptor; Table 6, CHO cell membranes): 20 nM

CC(C)C[C@H](NC(=O)[C@@H]1CCCN1C(=O)[C@H](Cc1ccccc1)NC(=O)CNC(=O)[C@@H](C)NC(=O)[C@@H](N)Cc1ccc(O)cc1)C(=O)N[C@@H](Cc1c[nH]c2ccccc12)C(=O)N(C)Cc1ccccc1 [TY010, H-Tyr-D-Ala-Gly-Phe-Pro-Leu-Trp-NMe-Bzl]
IC50 [1]: 3.16 nM
Ki [1]: 100 nM
Ki ([1]; read-out: Ki, hNK1): 1.6 nM
logD7.4 [2]: 3.5
inhibition at 1 µM (rat NK1 (rNK1) receptor; [12]): 33 ± 7.6%

CCCC[C@@H]1NC(=O)[C@H](Cc2ccccc2)NC(=O)CNC(=O)[C@H](NC(=O)[C@@H](N)Cc2ccc(O)cc2)CSSC[C@@H](C(=O)N[C@@H](Cc2c[nH]c3ccccc23)C(=O)NCc2cc(C(F)(F)F)cc(C(F)(F)F)c2)NC(=O)[C@@H]2CCCN2C1=O [TY035, [D-Cys^2, Cys^7]TY027] (HELM PEPTIDE1{Y.[dC].G.F.[Nle].P.C.W.[FC(F)(F)c1cc(CN[*:1])cc(C(F)(F)F)c1]}$PEPTIDE1,PEPTIDE1,2:R3-7:R3$$$V2.0; N-terminus assumed)
Kb ([3]; Ke (nM), Table 22): 2.2 ± 0.6 nM
GPI/LMMP SP Agonist (IC50; nM) ([3]; Table 39, at 30 nM): none
IC50 [1]: 0.2 nM
Ki ([1]; read-out: Ki, hNK1): 0.1 nM
IC50 (δ opioid receptors (MVD); Table 22, electrically stimulated isolated tissue, read-out: Opioid agonist MVD (δ), IC50): 85 ± 18 nM
IC50 (δ opioid receptors (MVD); Table 39, read-out: MVD opioid(delta) agonist (IC50; nM)): 84.7 nM
IC50 [4]: 2.51 nM
Ki ([4]; read-out: Ki, hDOR, [3H]DPDPE): 1.3 nM
IC50 (rat NK1 (rNK1) receptor; Table 20, CHO cell membranes): 100 nM
Ki(hNK1)/Ki(rNK1) (rat NK1 (rNK1) receptor; Table 20, species ratio): 30
Ki (rat NK1 (rNK1) receptor; Table 39, read-out: Affinity rNK1 (Ki; nM)): 30 nM
Ki (rat NK1 (rNK1) receptor; read-out: Ki (nM), rNK1, [3H]Substance P, Table 20, CHO cell membranes): 30 nM
EC50 ([5]; LogEC50, rMOR): 39.8 nM
EC50 ([5]; read-out: EC50 (nM), rMOR): 36 nM
Emax ([5]; read-out: Emax (%), rMOR): 41%
EC50 ([5]; read-out: GTP binding rMOR EC50): 36 nM
Emax ([5]; read-out: GTP binding rMOR Emax): 39%
IC50 [6]: 158 nM
Ki(μ)/Ki(δ) ([6]; Table 20, ratio rMOR Ki / hDOR Ki): 61
Ki ([6]; read-out: Ki, rMOR, [3H]DAMGO): 79 nM
half-life at 50 μg/mL [7]: > 6 h
IC50 (μ opioid receptors (GPI); Table 22, electrically stimulated isolated tissue, read-out: Opioid agonist GPI (μ), IC50): 1000 ± 200 nM
IC50 (μ opioid receptors (GPI); Table 39, read-out: GPI/LMMP opioid(mu) agonist (IC50; nM)): 1010 nM
EC50 ([8]; Table 21, HN9.10 cell, read-out: EC50 (nM), hDOR): 0.02 nM
EC50 ([8]; Table 21, logarithm of EC50 (negative), HN9.10 cell, read-out: LogEC50, hDOR (converted)): 0.0158 nM
Emax ([8]; Table 21, net total bound/basal binding × 100, read-out: Emax (%), hDOR): 11%
EC50 ([8]; Table 39, read-out: GTP binding hDOR EC50): 0.02 nM
Emax ([8]; Table 39, read-out: GTP binding hDOR Emax): 11%
Emax ([8]; net total bound/basal binding × 100, read-out: Emax, hDOR, [35S]GTP-γ-S binding): < 20%

CC(C)C[C@H](NC(=O)[C@@H]1CCCN1C(=O)[C@H](Cc1ccccc1)NC(=O)CNC(=O)[C@@H](C)NC(=O)[C@@H](N)Cc1ccc(O)cc1)C(=O)N[C@@H](Cc1c[nH]c2ccccc12)C(=O)OCc1ccccc1 [TY011, H-Tyr-DAla-Gly-Phe-Pro-Leu-Trp-O-Bzl]
IC50 [1]: 200 nM
Ki ([1]; read-out: Ki, hNK1): 100 nM
logD7.4 [2]: 3.8
IC50 (rat NK1 (rNK1) receptor; Table 6, CHO cell membranes): 794 nM
Ki (rat NK1 (rNK1) receptor; read-out: Ki, rNK1): 270 nM

CCCC[C@H](NC(=O)[C@H](Cc1ccccc1)NC(=O)CNC(=O)[C@@H](C)NC(=O)[C@@H](N)Cc1ccc(O)cc1)C(=O)N1CCC[C@H]1C(=O)NC(COC1OC(CO)C(O)C(O)C1O)C(=O)N[C@@H](Cc1c[nH]c2ccccc12)C(=O)NCc1cc(C(F)(F)F)cc(C(F)(F)F)c1 (some centres unmarked) [TY041]
Emax ([5]; Table 24, read-out: GTP binding rMOR Emax (%)): 42%
Emax ([5]; Table 39, read-out: GTP binding rMOR Emax): 42%
solubility [9]: < 1 µg/mL
Emax ([8]; read-out: GTP binding hDOR Emax): 62%
Emax ([8]; read-out: GTP binding hDOR Emax (%)): 62%

CC(C)C[C@H](NC(=O)[C@@H]1CCCN1C(=O)[C@H](Cc1ccccc1)NC(=O)CNC(=O)[C@@H](C)NC(=O)[C@@H](N)Cc1ccc(O)cc1)C(=O)N[C@@H](Cc1c[nH]c2ccccc12)C(=O)NCc1ccccc1 [TY008, H-Tyr-DAla-Gly-Phe-Pro-Leu-Trp-NH-Bzl]
species difference between the guinea pig and the rat (NK1) ([3]; GPI Ke vs rNK1 affinity): more than 40 fold
Kb ([3]; Ke): 26 ± 3.9 nM
IC50 [1]: 31.6 nM
Ki [1, 10]: 14 nM
Ki [1, 11]: 14 nM
Ki ([1]; read-out: Ki, hNK1): 14 nM
logD7.4 [2]: 3.3
inhibition at 1 µM (rat NK1 (rNK1) receptor; [12]): 30 ± 9.9%
inhibition at 1 µM (rat NK1 (rNK1) receptor; read-out: inhibition at rNK1 receptor): 30%
